According to patent publication US12521393B2, “Cytotoxicity targeting chimeras for CCR2-expressing cells” (GLAXOSMITHKLINE INTELLECTUAL PROPERTY DEVELOPMENT LIMITED, priority 2021, dated 2026):

Key:
[1] = tested on: CCR2 expressing cells (CD11b+Ly6c+Hi) in peripheral blood; assay: In vivo depletion assay, flow cytometry of peripheral blood (Example 201); set-up: species or system human CCR2 knock-in mice (C57 background); conditions: hCCR2 knock-in mice, IV 0.1 mpk compound + 10 mpk anti-cotinine antibody (SEQ ID NO: 13/14), peripheral blood at 48 hr
In short: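 Mice dosed with compound formulated in saline/DMSO/PBS, with anti-cotinine antibody (rabbit variable region, mouse IgG2a Fc) where required, pre-incubated 30 min at room temperature. Terminal peripheral blood RBC-lysed, Fc-blocked, stained for CD45, CD3, CD11b, Ly6C, human CCR2 and 7AAD; percent depletion of CD11b+Ly6c+Hi cells determined by flow cytometry.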

[2] = tested on: endogenous target monocytes in human PBMC; assay: PBMC ex vivo monocyte depletion flow cytometry assay (Example 200); format: cell-based; conditions: with anti-cotinine antibody (SEQ ID NO: 11/12), 18-24 hours, EC50 in molar, read-out: Ex Vivo Depletion Assay pEC50 (converted)
In short: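 Monocyte depletion is reported as pEC50, averaged or given individually across runs, and read by flow cytometry staining CD45, CD14 and CD4 with a viability dye. Compounds, diluted four-fold over 11 points from 1 mM DMSO stocks, were combined with 30 μg/mL Fc-enhanced anti-cotinine antibody and human PBMC, then incubated 18-24 h at 37° C.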

[3] = target: anti-cotinine antibody (SEQ ID NO: 11/12, rabbit variable region with human IgG1 Fc DE mutation); assay: SPR binding of anti-cotinine antibody to ARM compounds, Biacore T200, 37° C. (Example 202); conditions: SPR Biacore T200, 37° C., pH 7.4, antibody SEQ ID NO: 11/12 captured on protein A; Kd in molar
In short: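 Antibody captured on a protein A chip; ARM compounds injected at 100 μL/min (200 s association, 2000 s dissociation), 3-fold 5-point series from 200 nM, at 37 °C in HEPES pH 7.4 buffer with 0.005% P20 and 1% DMSO. Double-referenced sensorgrams fit 1:1 for kon, koff, Kd (koff/kon), residence time (1/koff); pKd averaged across runs.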

Structure (SMILES)	% Depletion of CCR2 expressing cells [1] [%]	EC50 [2] [nM]	pKd of Antibody for ARM Compound of Formula (I) [3]
CC(C)N(C)[C@@H]1CC[C@H](N2CC[C@H](Nc3ncnc4ccc(C(F)(F)F)cc34)C2=O)[C@H](NC(=O)[C@H]2CC[C@H](CNC(=O)CCCC(=O)NCCCOCCCNC(=O)[C@H]3CC(=O)N(C)[C@@H]3c3cccnc3)CC2)C1 [Example 20, N1-(((1R,4r)-4-(((1R,2S,5R)-5-(Isopropyl(methyl)amino)-2-((S)-2-oxo-3-((6-(trifluoromethyl)quinazolin-4-yl)amino)pyrrolidin-1-yl)cyclohexyl)carbamoyl)cyclohexyl)methyl)-N5-(3-(3-((2S,3S)-1-methyl-5-oxo-2-(pyridin-3-yl)pyrrolidine-3-carboxamido)propoxy)propyl)glutaramide]	79	0.316	8.8705
CN1C(=O)C[C@H](C(=O)NCCOCCOCCOCCC(=O)N[C@H]2CC[C@H](C(=O)N[C@@H]3C[C@H](NC(C)(C)C)CC[C@@H]3N3CC[C@H](Nc4ncnc5ccc(C(F)(F)F)cc45)C3=O)CC2)[C@H]1c1cccnc1 [Example 31, (2S,3S)-N-(2-(2-(2-(3-(((1S,4s)-4-(((1R,2S,5R)-5-(tert-Butylamino)-2-((S)-2-oxo-3-((6-(trifluoromethyl)quinazolin-4-yl)amino)pyrrolidin-1-yl)cyclohexyl)carbamoyl)cyclohexyl)amino)-3-oxopropoxy)ethoxy)ethoxy)ethyl)-1-methyl-5-oxo-2-(pyridin-3-yl)pyrrolidine-3-carboxamide]	94.9	3.16	9.3015
CC(C)N(C)[C@@H]1CC[C@H](N2CC[C@H](Nc3ncnc4ccc(C(F)(F)F)cc34)C2=O)[C@H](NC(=O)[C@H]2CC[C@H](CNC(=O)CCOCCOCCOCCNC(=O)[C@H]3CC(=O)N(C)[C@@H]3c3cccnc3)CC2)C1 [Example 32, (2S,3S)-N-(1-((1S,4s)-4-(((1R,2S,5R)-5-(Isopropyl(methyl)amino)-2-((S)-2-oxo-3-((6-(trifluoromethyl)quinazolin-4-yl)amino)pyrrolidin-1-yl)cyclohexyl)carbamoyl)cyclohexyl)-3-oxo-6,9,12-trioxa-2-azatetradecan-14-yl)-1-methyl-5-oxo-2-(pyridin-3-yl)pyrrolidine-3-carboxamide]	83	0.398	9.1825
CC(C)N(C)[C@@H]1CC[C@H](N2CC[C@H](Nc3ncnc4ccc(C(F)(F)F)cc34)C2=O)[C@H](NC(=O)CCOCCNC(=O)CCOCCNC(=O)CCOCCNC(=O)[C@H]2CC(=O)N(C)[C@@H]2c2cccnc2)C1 [Example 46, (2S,3S)-N-(20-(((1R,2S,5R)-5-(Isopropyl(methyl)amino)-2-((S)-2-oxo-3-((6-(trifluoromethyl)quinazolin-4-yl)amino)pyrrolidin-1-yl)cyclohexyl)amino)-6,13,20-trioxo-3,10,17-trioxa-7,14-diazaicosyl)-1-methyl-5-oxo-2-(pyridin-3-yl)pyrrolidine-3-carboxamide]	96	0.501	9.074
CC(C)N(C)[C@@H]1CC[C@H](N2CC[C@H](Nc3ncnc4ccc(C(F)(F)F)cc34)C2=O)[C@H](NC(=O)COCCNC(=O)CCOCCNC(=O)CCOCCNC(=O)[C@H]2CC(=O)N(C)[C@@H]2c2cccnc2)C1 [Example 47, (2S,3S)-N-(1-(((1R,2S,5R)-5-(Isopropyl(methyl)amino)-2-((S)-2-oxo-3-((6-(trifluoromethyl)quinazolin-4-yl)amino)pyrrolidin-1-yl)cyclohexyl)amino)-1,7,14-trioxo-3,10,17-trioxa-6,13-diazanonadecan-19-yl)-1-methyl-5-oxo-2-(pyridin-3-yl)pyrrolidine-3-carboxamide]	73	0.316	9.051
CC(C)N(C)[C@@H]1CC[C@H](N2CC[C@H](Nc3ncnc4ccc(C(F)(F)F)cc34)C2=O)[C@H](NC(=O)[C@H]2C[C@@H](NC(=O)CCOC[C@H]3CC[C@H](COCCNC(=O)[C@H]4CC(=O)N(C)[C@@H]4c4cccnc4)CC3)C2)C1 [Example 55, (2S,3S)-N-(2-(((1S,4S)-4-((3-(((1S,3S)-3-(((1R,2S,5R)-5-(Isopropyl(methyl)amino)-2-((S)-2-oxo-3-((6-(trifluoromethyl)quinazolin-4-yl)amino)pyrrolidin-1-yl)cyclohexyl)carbamoyl)cyclobutyl)amino)-3-oxopropoxy)methyl)cyclohexyl)methoxy)ethyl)-1-methyl-5-oxo-2-(pyridin-3-yl)pyrrolidine-3-carboxamide]	76.2	0.126	9.4085
CC(C)N(C)[C@@H]1CC[C@H](N2CC[C@H](Nc3ncnc4ccc(C(F)(F)F)cc34)C2=O)[C@H](NC(=O)[C@H]2CC[C@@H](NC(=O)CCCOC[C@H]3CC[C@@H](COCCNC(=O)[C@H]4CC(=O)N(C)[C@@H]4c4cccnc4)CC3)CC2)C1 [Example 61, (2S,3S)-N-(2-(((1S,4R)-4-((4-(((1S,4S)-4-(((1R,2S,5R)-5-(Isopropyl(methyl)amino)-2-((S)-2-oxo-3-((6-(trifluoromethyl)quinazolin-4-yl)amino)pyrrolidin-1-yl)cyclohexyl)carbamoyl)cyclohexyl)amino)-4-oxobutoxy)methyl)cyclohexyl)methoxy)ethyl)-1-methyl-5-oxo-2-(pyridin-3-yl)pyrrolidine-3-carboxamide]	92	0.316	9.558
CC(C)N(C)[C@@H]1CC[C@H](N2CC[C@H](Nc3ncnc4ccc(C(F)(F)F)cc34)C2=O)[C@H](NC(=O)COCCNC(=O)CNC(=O)CCOCCOCCNC(=O)[C@H]2CC(=O)N(C)[C@@H]2c2cccnc2)C1 [Example 80, (2S,3S)-N-(1-(((1R,2S,5R)-5-(Isopropyl(methyl)amino)-2-((S)-2-oxo-3-((6-(trifluoromethyl)quinazolin-4-yl)amino)pyrrolidin-1-yl)cyclohexyl)amino)-1,7,10-trioxo-3,13,16-trioxa-6,9-diazaoctadecan-18-yl)-1-methyl-5-oxo-2-(pyridin-3-yl)pyrrolidine-3-carboxamide]	89	3.98	9.109
CC(C)N(C)[C@@H]1CC[C@H](N2CC[C@H](Nc3ncnc4ccc(C(F)(F)F)cc34)C2=O)[C@H](Nc2c(NCCOCCOCCOCCOCCOCCNC(=O)[C@H]3CC(=O)N(C)[C@@H]3c3cccnc3)c(=O)c2=O)C1 [Example 85, (2S,3S)-N-(17-((2-(((1R,2S,5R)-5-(Isopropyl(methyl)amino)-2-((S)-2-oxo-3-((6-(trifluoromethyl)quinazolin-4-yl)amino)pyrrolidin-1-yl)cyclohexyl)amino)-3,4-dioxocyclobut-1-en-1-yl)amino)-3,6,9,12,15-pentaoxaheptadecyl)-1-methyl-5-oxo-2-(pyridin-3-yl)pyrrolidine-3-carboxamide]	57	2	9.6885
